{
  "source": "patent US8895509B2",
  "about": "“MIR-200 family induces mesenchymal-to-epithelial transition (MET) in ovarian cancer cells” (Georgia Tech Research Corporation, priority 2010, dated 2014)",
  "format_in_all_cases": "cell-based, human",
  "key": {"[1]": {"test_system": "HEY cells", "experiment": "qRT-PCR of EMT marker mRNAs in transfected HEY cells", "procedure": "6×10^4 cells per well were seeded in 24-well plates. After 24 h, cells were transfected with 30 nM of miR-429 and miR-320 miRNA oligonucleotides (Ambion, Austin, Tex.) using Lipofectamine 2000 reagent (Invitrogen, Carlsbad, Calif.). The Ambion Pre-miRNA Precursor Negative Control was used as a control. Three days after transfection, cells were split and transfected again. This process was repeated every 3 days until 21 days when cells were assayed for response.\nTotal RNA was extracted from cells using the miRVana miRNA isolation kit (Ambion). MicroRNA expression was carried our using TaqMan microRNA assays (Applied Biosystems, Carlsbad, Calif.) with human U6 as the endogenous control. For mRNA quantitation, RNA (4.0 μg) was reversed transcribed into cDNA using the Superscript III First-strand Synthesis System (Invitrogen) according to the manufacturer's instructions using sequence specific primers. Real-time PCR was performed using Power SYBR Green PCR Master Mix (Bio-Rad, Hercules, Calif.) and data normalized to glyceraldehydes-3-phosphate-dehydrogenase (GAPDH). Each transfection experiment was carried out in triplicate with 3 PCR reactions performed per transfection. The PCR results were analyzed by 1-way Analysis of Variance (ANOVA) and the Newman-Keuls-Student t test. A p value of <0.05 was considered significant."}, "[2]": {"test_system": "HEY cells", "experiment": "anchorage-independent growth in soft agar", "conditions": "8 days in soft agar, vs negative control", "procedure": "Anchorage independent growth was examined using Cell Biolab's (San Diego, Calif.) soft agar kit according to the manufacturer's protocol. Briefly, 5,000 cells were grown in a 0.3% low melting temperature agar matrix. After 8 days of incubation, the agar matrix was solubilized, cells stained and absorbance recorded at 520 nm. The optical density (OD) was measured in a 96-well plate reader using a 485/520 nm filter set.\nAnchorage-independent growth is another characteristic of mesenchymal cells and is considered a hallmark of cellular transformation [Takeyama et al., Cancer Lett 2010; 96:216-24]. We tested anchorage-independent growth of HEY cells transfected with miR-429 relative to controls."}, "[3]": {"test_system": "HEY cells", "experiment": "sensitivity of transfected HEY cells to cisplatin", "conditions": "miR-429 vs negative control miRNA", "procedure": "Cultures of the mesenchymal HEY cells were transfected with a negative control (NC) miRNA or miR-429 using Lipofectamine 2000 (Invitrogen) and treated with increasing concentrations of cisplatin. (0.1, 0.5, 1, 3, 5, 7, 10, 15, 20, 30, 50 μM)."}},
  "note": "Entries after “also recorded” stand apart in the source; their conditions may differ.",
  "data": [
    {"substance": "miR-429: miR-200 family member; mature miRNA UAAUACUGUCUGGUAAAACCGU (SEQ ID NO: 6); miRNA oligonucleotide (Ambion) transfected at 30 nM (listed as RNA, chemistry not given here; listed as Homo sapiens) [miR-200 family member; miRNA oligonucleotide (Ambion) transfected at 30 nM]", "values": [
      {"measurement": "levels of E-cadherin mRNA", "setting": "[1]", "value": "concomitant increase; also recorded: significantly higher"},
      {"measurement": "levels of FN1 (fibronectin) mRNA", "setting": "[1]", "value": "No significant difference"},
      {"measurement": "levels of N-cadherin mRNA", "setting": "[1]", "value": "No significant difference"},
      {"measurement": "levels of VIM (vimentin) mRNA", "setting": "[1]", "value": "No significant difference"},
      {"measurement": "levels of ZEB1 mRNA", "setting": "[1]", "value": "significant decrease; also recorded: significantly lower"},
      {"measurement": "levels of ZEB2 mRNA", "setting": "[1]", "value": "significant decrease; also recorded: significantly lower"},
      {"measurement": "anchorage-independent growth", "setting": "[2]", "value": "significant suppression; also recorded: significantly reduced"},
      {"measurement": "sensitivity to cisplatin", "setting": "[3]", "value": "increased significantly"}
    ]}
  ]
}
